Laboratory results taken from patent US6492360B1, “Phthalazine derivatives phosphodiesterase 4 inhibitors” (Zambon Group S.p.A., priority 1998, dated 2002).
Structures can show the parent of a compound that is named as a salt.

Legend:
Format in all cases: biochemical
PDE 3 = target: T1, PDE 3 (Homo sapiens, UniProt Q14432); test: PDE 3 enzyme inhibition (SPA); details: 10^−6 M; PDE 3 from human platelets; cAMP
T1 construct: The fractions containing the enzymatic activities (PDE 3 or PDE 5) were pooled; from tissue; host or cells: human platelets from platelet rich plasma of healthy volunteers
Experimental: (§1) a) Human Platelet Preparation
(§2) Human platelets were prepared from platelet rich plasma (PRP) obtained from healthy volunteers. The PRP was centrifuiged at 2,200 rpm for 15 minutes at 4° C. and the pellet was suspended in lysis solution (15 ml; 155 mM NH4Cl, 10 mM KHCO3 and 0.1 mM Na2EDTA, pH=7.4) and incubated for 10 minutes on ice-bath to remove the erythrocyte contamination. After centrifugation at 1,400 rpm for 10 minutes at 4° C., platelets were suspended in 10 ml of […], 5 mM KCl, 1 mM MgSO4, 10 mM glucose, 10 mM HEPES (pH 7.4) and 0.05 U/ml of hirudin, and stored at −20° C. until homogenisation. Platelets were thawed and 50 ml of 20 mM TRIS (pH=6.5) containing 5 mM β-mercapto-ethanol, 2 mM EDTA, 50 mM sodium acetate and 50 μM PMSF (homogenisation buffer) were added. The platelet suspension was then homogenised by a Polytron homogeniser (Polytron PT 1200) for 20 seconds. The homogenate was centrifuged at 14,500 rpm for 20 minutes at 4° C., and the supernatant was applied to an UNO Q12 column (Bio-Rad). The PDE 3 and PDE 5 were eluted by sodium acetate linear gradient from 0.05M to 1M using a flow rate of 4.5 ml/minutes. The fractions containing the enzymatic activities (PDE 3 or PDE 5) were pooled, dialysed against water and concentrated 10 times by ultrafiltration. The PDE 3 and PDE 5 fractions were stored at −20° C. in the presence of ethylene glycol (30% v/v) until use.
(§3) b) PDE 3 and PDE 5 Activity Assay
(§4) The enzyme activity was evaluated with a Scintillation Proximity Assay (SPA) kit (Amersham). The enzymatic reaction was performed in a final volume of 100 μl of TRIS/HCl buffer (50 mM, pH7.5), MgCl2 (8.3 mM), EGTA (1.7 mM), cAMP (for PDE 3 assay) or cGMP (for PDE 5 assay) (1 μM), [^3H]cAMP or [^3H]cGMP (10 μl ), and 10 μl of the compounds of the invention or vehicle. The reaction was started by adding the enzyme (1.0 μg) and incubated for 40 minutes at 30° C. SPA beads (50 μl) containing 18 mM zinc sulphate were added to stop the reaction and after 20 minutes at room temperature the radioacticity was measured using a scintillation counter.
(§5) The compounds were tested at 10^−6M and the results are expressed as percent of inhibition.

PDE 5 = target: T2, PDE 5 (Homo sapiens, UniProt O76074); test: PDE 5 enzyme inhibition (SPA); details: 10^−6 M; PDE 5 from human platelets; cGMP
T2 construct: The fractions containing the enzymatic activities (PDE 3 or PDE 5) were pooled; from tissue; host or cells: human platelets from platelet rich plasma of healthy volunteers
Experimental: as §1, §2, §3, §4, §5

PDE 4 = PDE 4 enzyme inhibition (SPA); details: PDE 4 purified from human PMNs; cAMP 1 μM
Experimental: a) Human Polymorphonuclear Leukocyte Isolation
The polymorphonuclear leukocytes (PMNs) were isolated from peripheral blood of healthy volunteers according to Boyum A. (Scand. J. Immunol., 1976, 5th suppl., 9). Briefly, the PMNs were purified by Ficoll-Paque gradient centrifugation followed by sedimentation on dextran and the erythrocyte contamination was eliminated by hypotonic lysis.
b) PDE 4 Enzyme Purification
The human PMNs were suspended in TRIS/HCl buffer (10 mM, pH 7.8) containing MgCl2 (5 mM), EGTA (4 mM), mercaptoethanol (5 mM), TRITON-X100 (1%), pepstatin A (1 μM), PMSF (100 μM) and leupeptin (1 μM), and homogenised by Polytron homogeniser. The homogenate was centrifuged at 25,000×g for 30 minutes at 4° C. and the PDE 4 enzyme was purified by ion exchange chromatography using the FPLC technique according to Schudt C. et al. (Naunyn-Schmidberg's Arch. Pharmacol., 1991, 334, 682). The supernatant was seeded on a UNO Q12 column (Bio-Rad) and the enzyme was eluted by sodium acetate linear gradient from 50 mM to 1M using a flow rate of 4.5 ml/minutes. The fractions containing enzymatic activity were pooled, dialysed against water and concentrated. The PDE 4 enzyme was stored at, −20° C. in the presence of ethylene glycol (30% v/v) until the use.
The enzyme activity was evaluated with a Scintillation Proximity Assay (SPA) kit (Amersham). The enzymatic reaction was performed in a final volume of 100 μl of TRIS/HCl buffer (50 mM, pH 7.5), MgCl2 (8.3 mM), EGTA (1.7 mM), cAMP (1 μM) and [^3H]cAMP (˜100.000 dpm) as tracer. The compounds of the invention, the reference ones or the vehicle were added at different concentrations. As reference compounds 6,7-dimethoxy-4-pyridin-4-yl-methyl)2H-phthalazin-1-one (reference 1) and 6,7-dimethoxy-4-(piperidin-4-yl-methyl)2H-phthalazin-1-one (reference 2) embraced by the general formula of the patent application EP-0 722 936 (in the name of Eisai) were used. The reaction was started by adding 1.5 μg protein and incubated for 40 minutes at 30° C. SPA beads (50 μl) containing 18 mM zinc sulphate were added to stop the reaction and after 20 minutes at room temperature the radioactivity was measured using a scintillation counter.
The IC50 value refers to the nanomolar concentration of the compound required to inhibit cyclic nucleotide hydrolysis by 50%, and it was calculated by non-linear regression analysis.

T1 sequence (Q14432 whole entry): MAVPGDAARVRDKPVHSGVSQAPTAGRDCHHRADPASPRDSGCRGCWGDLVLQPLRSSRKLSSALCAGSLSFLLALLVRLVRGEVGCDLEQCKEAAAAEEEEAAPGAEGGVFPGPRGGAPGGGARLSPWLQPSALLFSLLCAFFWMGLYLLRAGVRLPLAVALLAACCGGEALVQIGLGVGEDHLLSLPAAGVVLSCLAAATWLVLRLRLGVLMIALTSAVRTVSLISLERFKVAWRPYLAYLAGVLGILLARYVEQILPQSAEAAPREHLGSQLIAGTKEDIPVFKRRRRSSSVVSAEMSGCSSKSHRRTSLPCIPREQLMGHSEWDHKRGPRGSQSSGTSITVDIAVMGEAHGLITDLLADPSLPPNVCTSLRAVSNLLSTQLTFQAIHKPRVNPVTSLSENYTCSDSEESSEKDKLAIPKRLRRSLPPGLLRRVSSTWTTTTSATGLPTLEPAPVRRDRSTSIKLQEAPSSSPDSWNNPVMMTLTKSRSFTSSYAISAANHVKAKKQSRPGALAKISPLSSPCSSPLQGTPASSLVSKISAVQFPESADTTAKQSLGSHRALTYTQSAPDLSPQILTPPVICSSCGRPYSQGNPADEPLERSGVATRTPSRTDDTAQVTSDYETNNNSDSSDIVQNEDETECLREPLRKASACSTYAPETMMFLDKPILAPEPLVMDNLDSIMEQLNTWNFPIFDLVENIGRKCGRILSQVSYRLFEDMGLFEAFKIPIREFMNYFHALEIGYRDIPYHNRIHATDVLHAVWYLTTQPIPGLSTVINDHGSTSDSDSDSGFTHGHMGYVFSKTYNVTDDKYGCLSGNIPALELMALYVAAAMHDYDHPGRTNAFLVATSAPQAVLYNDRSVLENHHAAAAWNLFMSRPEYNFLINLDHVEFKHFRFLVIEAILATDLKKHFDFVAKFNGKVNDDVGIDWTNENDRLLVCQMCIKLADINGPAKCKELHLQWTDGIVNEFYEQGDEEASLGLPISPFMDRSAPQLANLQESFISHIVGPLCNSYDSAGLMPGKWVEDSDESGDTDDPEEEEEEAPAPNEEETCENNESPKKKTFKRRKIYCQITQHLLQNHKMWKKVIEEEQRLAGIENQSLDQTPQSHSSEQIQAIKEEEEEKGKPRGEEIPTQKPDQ

| Structure (SMILES) | inhibition at 1 µM (PDE 3) | inhibition at 1 µM (PDE 5) | IC50 (PDE 4) |
| --- | --- | --- | --- |
| CCn1nc(Cc2c(Cl)cncc2Cl)c2ccc(OC)cc2c1=O [Compound 20, 4-(3,5-Dichloro-pyridin-4-ylmethyl)-2-ethyl-7-methoxy-2H-phthalazin-1-one] | 5% | 11% | 158 ± 34 nM |
| COc1ccc2c(c1)CN(C(=O)c1ccccc1)N=C2Cc1c(Cl)cncc1Cl [Compound 12, [4-(3,5-Dichloro-pyridin-4-ylmethyl)-7-methoxy-1H-phthalazin-2-yl]-phenyl-methanone] | – | – | 30 ± 8 nM |
| COc1ccc2c(Cc3c(Cl)cncc3Cl)nn(CCc3ccccc3)c(=O)c2c1 [Compound 22, 4-(3,5-Dichloro-pyridin-4-ylmethyl)-7-methoxy-2-phenethyl-2H-phthalazin-1-one] | 20% | 8% | 225 ± 35 nM |
| COc1ccc2c(c1)CN(C(=O)Cc1ccccc1)N=C2Cc1c(Cl)cncc1Cl [Compound 13, 1-[4-(3,5-Dichloro-pyridin-4-ylmethyl)-7-methoxy-1H-phthalazin-2-yl]-2-phenyl-ethanone] | – | – | 12 ± 2 nM |
| COC(=O)N1Cc2cc(OC)ccc2C(Cc2c(Cl)cncc2Cl)=N1 [Compound 16, 4-(3,5-Dichloro-pyridin-4-ylmethyl)-7-methoxy-1H-phthalazine-2-carboxylic acid methyl ester] | – | – | 72 ± 16 nM |
| COc1ccc2c(c1)CN(C(=O)C(C)C)N=C2Cc1c(Cl)cncc1Cl [Compound 11, 1-[4-(3,5-Dichloro-pyridin-4-ylmethyl)-7-methoxy-1H-phthalazin-2-yl]-2-methyl-propan-1-one] | 17% | 10% | 26 ± 3 nM |
| CCC(=O)N1Cc2cc(OC)ccc2C(Cc2c(Cl)cncc2Cl)=N1 [Compound 10, 1-[4-(3,5-Dichloro-pyridin-4-ylmethyl)-7-methoxy-1H-phthalazin-2-yl]-propan-1-one] | – | – | 28 ± 4 nM |
| CNC(=O)N1Cc2cc(OC)ccc2C(Cc2c(Cl)cncc2Cl)=N1 [Compound 17, 4-(3,5-Dichloro-pyridin-4-ylmethyl)-7-methoxy-1H-phthalazine-2-carboxylic acid methyl-amide] | 12% | 21% | 131 ± 24 nM |
| COc1ccc2c(c1)CN(S(C)(=O)=O)N=C2Cc1c(Cl)cncc1Cl [Compound 15, 4-(3,5-Dichloro-pyridin-4-ylmethyl)-2-methanesulfonyl-7-methoxy-1,2-dihydro-phthalazine] | 15% | 0% | 21 ± 4 nM |
| COc1ccc2c(c1)CN(C(N)=O)N=C2Cc1c(Cl)cncc1Cl [Compound 9, 4-(3,5-Dichloro-pyridin-4-ylmethyl)-7-methoxy-1H-phthalazine-2-carboxylic acid amide] | – | – | 36 ± 4 nM |

Next, values leading:

| inhibition at 1 µM (PDE 3) | inhibition at 1 µM (PDE 5) | IC50 (PDE 4) | Structure (SMILES) |
| --- | --- | --- | --- |
| -2% | 1% | 93 ± 29 nM | C#Cc1nnc(Cc2c(Cl)cncc2Cl)c2ccc(OC)cc12 [Compound 60, 1-(3,5-Dichloro-pyridin-4-ylmethyl)-4-ethynyl-6-methoxy-phthalazine] |
| 19% | 21% | 209 ± 26 nM | COc1ccc2c(Cc3c(Cl)cncc3Cl)nn(CCCCCc3ccccc3)c(=O)c2c1 [Compound 23, 4-(3,5-Dichloro-pyridin-4-ylmethyl)-7-methoxy-2-(5-phenyl-pentyl)-2H-phthalazin-1-one] |
| – | – | 7.1 ± 0.5 nM | COc1ccc2c(Cc3c(Cl)cncc3Cl)nncc2c1C#CCN(C)Cc1ccccc1 [Compound 35, Benzyl-{3-[1-(3,5-dichloro-pyridin-4-ylmethyl)-6-methoxy-phthalazin-5-yl]-prop-2-ynyl}-methyl-amine dihydrochloride] |
| 15% | 9% | 48 ± 12 nM | COc1ccc2c(Cc3c(Cl)cncc3Cl)nnc(C#Cc3ccccc3)c2c1 [Compound 27, 1-(3,5-Dichloro-pyridin-4-ylmethyl)-6-methoxy-4-phenylethynyl-phthalazine] |
| 2% | 33% | – | FC(F)Oc1ccc2c(Cc3c(Cl)cncc3Cl)nnc(-n3cncn3)c2c1 [Compound 54, 1-(3,5-Dichloro-pyridin-4-ylmethyl)-6-difluoromethoxy-4-[1,2,4]triazol-1-yl-phthalazine] |
| – | – | 36 ± 9 nM | COc1ccc2c(Cc3c(Cl)cncc3Cl)nn(S(C)(=O)=O)c(=O)c2c1 [Compound 24, 4-(3,5-Dichloro-pyridin-4-methyl)-2-methanesulfonyl-7-methoxy-2H-phthalazin-1-one] |
| – | – | 61 ± 2.4 nM | COc1ccc2c(Cc3c(Cl)cncc3Cl)nncc2c1C#CCO [Compound 37, 3-[1-(3,5-Dichloro-pyridin-4-ylmethyl)-6-methoxy-phthalazin-5-yl]-prop-2-yn-1-ol] |
| – | – | 10 ± 2 nM | COc1ccc2c(Cc3c(Cl)cncc3Cl)nncc2c1C#CCCCc1ccccc1 [Compound 32, 1-(3,5-Dichloro-pyridin-4-ylmethyl)-6-methoxy-5-(5-phenyl-pent-1-ynyl)-phthalazine] |
| – | – | 19 ± 3 nM | COc1ccc2c(Cc3c(Cl)cncc3Cl)nncc2c1C=CCCCc1ccccc1 [Compound 33, 1-(3,5-Dichloro-pyridin-4-ylmethyl)-6-methoxy-5-(5-phenyl-pent-1-enyl)phthalazine] |
| – | – | 312 ± 48 nM | FC(F)Oc1ccc2c(Cc3c(Cl)cncc3Cl)nnc(N3CCOCC3)c2c1 [Compound 55, 1-(3,5-Dichloro-pyridin-4-ylmethyl)-6-difluoromethoxy-4-morpholin-4-yl-phthalazine] |
| – | – | 96.4 ± 7.3 nM | COc1ccc2c(Cc3c(Cl)cncc3Cl)nncc2c1C#CCCCN1CCOCC1 [Compound 36, 1-(3,5-Dichloro-pyridin-4-ylmethyl)-6-methoxy-5-(5-morpholin-4-yl-pent-1-ynyl)-phthalazine dihydrochloride] |
| – | 0% | 14 ± 2 nM | COc1ccc2c(Cc3c(Cl)cncc3Cl)nnc(-c3nccs3)c2c1 [Compound 26, 1-(3,5-Dichloro-pyridin-4-ylmethyl)-6-methoxy-4-thiazol-2-yl-phthalazine] |
